Literature values as cited in patent US7163702B1 (priority 2004, dated 2007).

Details: human, in vivo

N=C(N)c1ccc(OCCCCCOc2ccc(C(=N)N)cc2)cc1 [pentamidine]
incidence of adverse reactions: around 50%
